From patent US6379670B1, “Methods for treatment of multiple sclerosis using peptide analogs of human myelin basic protein” (Neurocrine Biosciences, Inc., priority 1994, dated 2002)

System: Lewis rats
Assay: Induction of EAE by peptide analog
Type: in vivo, rat
Protocol: In addition, as a safety measure, but not essential to this invention, suitable peptide analogs may be tested for direct induction of EAE. As described in detail in Example 2, various amounts of peptide analogs are injected at the base of the tail of rats, and the rats examined daily for signs of EAE. A peptide analog which is not considered to cause EAE has a mean cumulative score of less than or equal to 1 over seven days when about 12 mg/kg or less in complete Freund's adjuvant is injected.
MBP peptide and peptide analogs were dissolved in phosphate-buffered saline (PBS) and emulsified with an equal volume of incomplete Freund's adjuvant supplemented with 4 mg/ml heat-killed Mycobacterium tuberculosis H37Ra in oil (Difco Laboratories, Inc., Detroit, Mich.). Rats were immunized subcutaneously at the base of the tail with 0.1-0.2 ml containing 500 μg of peptide in the emulsion and were monitored for clinical signs daily. EAE was scored on a scale of 0-4, as follows: 0, clinically normal; 1, flaccid tail; 2, hind limb weakness; 3, hind limb paralysis; 4, front and hind limbs affected.
The ability of peptide analogs to cause EAE is assessed in vivo. Rats were injected with MBP (87-99) or h88/A91 peptide analog as described in Example 2. Animals were monitored daily for evidence of EAE. Rats receiving MBP (87-99) had 100% incidence (18/18 rats) of EAE with a mean maximum clinical score of 2.4±0.2. In contrast, 0/12 rats receiving the peptide analog h88/A91 had EAE.

[1] = rats injected with 500 μg peptide in adjuvant

Compound | induction of EAE by the peptide (rat, in vivo) | rats with EAE / rats injected [1] | incidence of EAE [1] [%] | mean maximum clinical score (scale 0-4)
CC[C@H](C)[C@H](NC(=O)[C@H](CC(N)=O)NC(=O)[C@H](C)NC(=O)[C@H](Cc1ccccc1)NC(=O)[C@H](Cc1ccccc1)NC(=O)[C@@H](Cc1c[nH]cn1)NC(=O)[C@@H](N)C(C)C)C(=O)N[C@H](C(=O)N[C@H](C(=O)N1CCC[C@H]1C(=O)N[C@@H](CCCNC(=N)N)C(=O)N[C@H](C(=O)N1CCC[C@H]1C(=O)O)[C@@H](C)O)[C@@H](C)O)C(C)C [h88/A91] | does not induce EAE | 0/12 |  | 
CC[C@H](C)[C@H](NC(=O)[C@H](CC(N)=O)NC(=O)[C@H](CCCCN)NC(=O)[C@H](Cc1ccccc1)NC(=O)[C@H](Cc1ccccc1)NC(=O)[C@H](Cc1c[nH]cn1)NC(=O)[C@@H](N)C(C)C)C(=O)N[C@H](C(=O)N[C@H](C(=O)N1CCC[C@H]1C(=O)N[C@@H](CCCNC(=N)N)C(=O)N[C@H](C(=O)N1CCC[C@H]1C(=O)O)[C@@H](C)O)[C@@H](C)O)C(C)C [MBP (87-99)] |  | 18/18 | 100 | 2.4±0.2
